The test system of experiment [1] is HCT-116. As to the kind of experiment: Antiproliferative activity against human HCT116 cells assessed as reduction in cell growth after 72 hrs by MTT assay. It is filed as functional, cell-based. To be noted: HCT-116, 72 h. (In general: Formazan colour is commonly taken as a measure of viable cells.)
The nature of experiment [2]: Antiproliferative activity against human KB/S cells assessed as reduction in cell growth after 72 hrs by MTT assay. The format is functional, cell-based.
The test system of experiment [3] is A549. As to the kind of experiment: Antiproliferative activity against human A549 cells assessed as reduction in cell growth after 72 hrs by MTT assay. The format is functional, cell-based. The following applies: A549, 72 h.
For experiment [4], the system named is MDA-MB-231. Put plainly: Antiproliferative activity against human MDA-MB-231 cells assessed as reduction in cell growth after 72 hrs by MTT assay. The format is functional, cell-based. The following applies: MDA-MB-231, 72 h.
The test system of experiment [5] is MCF7. Put plainly: Antiproliferative activity against human MCF7 cells assessed as reduction in cell growth after 72 hrs by MTT assay. The following applies: MCF7, 72 h. It is filed as functional, cell-based.
For experiment [6], the system named is CCD-18Co. Put plainly: Cytotoxicity against human CCD-18Co cells assessed as reduction in cell growth after 72 hrs by MTT assay. The format is cell-based.
For experiment [7], the system named is KB/VJ300. Put plainly: Antiproliferative activity against human KB/VJ300 cells assessed as reduction in cell growth after 72 hrs by MTT assay. It is filed as functional, cell-based. The following applies: KB/VJ300, 72 h.
In experiment [8] the test system is HT-29. As to the kind of experiment: Antiproliferative activity against human HT-29 cells assessed as reduction in cell growth after 72 hrs by MTT assay. It is filed as functional, cell-based. The following applies: HT-29, 72 h.
Experiment [9] deals with PC-3. Put plainly: Antiproliferative activity against human PC3 cells assessed as reduction in cell growth after 72 hrs by MTT assay. The format is functional, cell-based. To be noted: PC-3, 72 h.
The test system of experiment [10] is LNCaP. Put plainly: Antiproliferative activity against human LNCAP cells assessed as reduction in cell growth after 72 hrs by MTT assay. It is filed as functional, cell-based.
Experiment [11] concerns MRC5. Put plainly: Cytotoxicity against human MRC5 cells assessed as reduction in cell growth after 72 hrs by MTT assay. To be noted: MRC5, 72 h. The format is cell-based.
In experiment [12] the test system is KB/VJ300. As to the kind of experiment: Antiproliferative activity against human vincristine-rsistant KB/VJ300 cells assessed as reduction in cell growth after 72 hrs by MTT assay. The format is functional, cell-based. To be noted: KB/VJ300, 72 h.

What is called IC50 is the concentration needed to halve the response being measured.

Turning to `C/C=C1/CN2[C@H]3C[C@@H]1[C@@H](CO)[C@@H]2Cc1c3n(C)c2cc(C[C@H]3[C@@H]4C[C@H]5c6c(c7ccccc7n6C)C[C@@H]([C@@H]4CO[C@]3(C)OC)N5C)c(OC)cc12`, the IC50 was 2.9 µM in experiment [1]; 2.4 µM in [2]; 6.8 µM in experiment [3]; 1.4 µM in experiment [4]; 1.3 µM in experiment [5]; 4.3 µM in experiment [6]. The IC50 in experiment [7] turned out to be 2.9 µM; in [8], 0.03 µM; in [9], 3.1 µM.

For the compound `C/C=C1/CN2[C@H]3C[C@@H]1[C@@H](CO)[C@@H]2Cc1c3n(C)c2cc(C(C)C3=COC[C@@H]4[C@H]3C[C@H]3c5c(c6ccccc6n5C)C[C@@H]4N3C)c(OC)cc12` (stereo partly drawn), the IC50 was more than 10 µM in [1]; 6.2 µM in experiment [10]; 0.6 µM in experiment [2]; 7.9 µM in experiment [11]; 7 µM in experiment [3]; 4.5 µM in experiment [4]. For the same compound, the IC50 was 4.5 µM in [5]; 6.7 µM in experiment [7]; 0.2 µM in experiment [12]; 0.3 µM in experiment [8]; 8.2 µM in [9].

Regarding `C/C=C1/CN2[C@H]3C[C@@H]1[C@@H](CO)[C@@H]2Cc1c3n(C)c2ccc(OC)c(CC3=C(C)OC[C@@H]4[C@H]3C[C@H]3c5c(c6ccccc6n5C)C[C@@H]4N3C)c12`, the IC50 in experiment [1] came to 4.2 µM; in [2] it was 2.8 µM; in experiment [3], 9 µM; in [4] it was 4.8 µM; in experiment [5], 2 µM; in [6], 9.7 µM. The half-inhibitory concentration (IC50) in [7] was found to be 5.9 µM; in experiment [8] it was 0.07 µM; in experiment [9] it was 6.1 µM.

Regarding `C/C=C1/CN2[C@H]3C[C@@H]1[C@@H](CO)[C@@H]2Cc1c3n(C)c2cc(C[C@@H]3[C@@H]4C[C@H]5c6c(c7ccccc7n6C)C[C@@H]([C@@H]4CO[C@]3(C)OC)N5C)c(OC)cc12`, the IC50 was more than 10 µM in [1]; 3.7 µM in experiment [10]; 1.1 µM in experiment [2]; more than 10 µM in experiment [11]; more than 10 µM in experiment [3]; 4.8 µM in experiment [4]. The half-maximal inhibitory concentration (IC50) in experiment [5] is 5.3 µM; in [7] it was more than 10 µM; in [12], 3.9 µM; in [8], 0.07 µM; in [9] it was more than 10 µM.

For the compound `C/C=C1/CN2[C@H]3C[C@@H]1[C@@H](CO)[C@@H]2Cc1c3n(C)c2ccc(OC)c(C[C@@H](C(C)=O)[C@@H]3C[C@H]4c5c(c6ccccc6n5C)C[C@@H]([C@@H]3CO)N4C)c12`, the IC50 in [1] worked out at 1.5 µM; in [2], 2.5 µM; in experiment [3], 3.9 µM; in [4], 4.1 µM; in [5], 7.7 µM; in [6] it was 4.1 µM. Further, the IC50 was 5.5 µM in [7], 8.8 µM in experiment [12], 0.03 µM in experiment [8] and more than 10 µM in experiment [9].

Regarding `C/C=C1/CN2[C@H]3C[C@@H]1[C@@H](CO)[C@@H]2Cc1c3n(C)c2cc(C[C@@H](C(C)=O)[C@@H]3C[C@H]4c5c(c6ccccc6n5C)C[C@@H]([C@@H]3CO)N4C)c(OC)cc12`, the IC50 was 2.1 µM in experiment [1]; 1.7 µM in experiment [2]; 3 µM in [3]; more than 10 µM in experiment [4]; 8.5 µM in experiment [5]; 5.1 µM in experiment [6]. Further, the half-maximal inhibitory concentration (IC50) in experiment [7] was 3.6 µM; in [12], 4.2 µM; in [8], 0.02 µM; in experiment [9], more than 10 µM.

Consider `COc1ccc(CCN(C)CCCC(C#N)(c2ccc(OC)c(OC)c2)C(C)C)cc1OC` (stereo not drawn) [VERAPAMIL], for which the IC50 in experiment [12] turned out to be 0.4 µM.

As to `CC[C@]1(O)C[C@H]2CN(CCc3c([nH]c4ccccc34)[C@@](C(=O)OC)(c3cc4c(cc3OC)N(C=O)[C@H]3[C@@](O)(C(=O)OC)[C@H](OC(C)=O)[C@]5(CC)C=CCN6CC[C@]43[C@@H]65)C2)C1` [VINCRISTINE], the 50% inhibitory concentration (IC50) in experiment [2] came to 0.0008 µM; in experiment [7], 0.8 µM.

Source of the values: ChEMBL document CHEMBL4414629, “Macroline-Sarpagine Bisindole Alkaloids with Antiproliferative Activity from Alstonia penangiana” (J Nat Prod, 2019).
